Measured values as given in patent US6358514B1, “Combination of a retinoid with a histidine derivative” (L'Oreal, priority 1998, dated 2002).

Type: physicochemical
Experimental: The stability of a retinoid is defined in accordance with the present invention by the percentage of the retinoid which remains in its original form after the composition comprising it has been stored for a given period and at a given temperature.
Test of stability of 0.3% all-trans retinol in a water/ethanol mixture stored at 45° C.
The conditions of the study are as follows: test compound at 0.1% (as weight/volume) in water/ethanol (40/60%) all-trans retinol sold by the company Fluka at 0.3% (as weight/volume) in water/ethanol (40/60%) aerobic medium with 55% by volume of air and 45% by volume of ethanol/water storage at 45° C. in amber-coloured bottles.
Degradation of the retinol under these conditions reaches 100% in 7 days of storage at 45° C. The storage conditions to which we subjected the compositions are particularly harsh.
The residual retinol content is monitored by HPLC (on a Spherisorb ODS1 C18 column, by elution with an H2O/CH3CO2H/CH3CO2NH4/acetonitrile mixture: 15/1/0.4/83.6) at 7 days (RT1) and 15 days (RT2) of storage at 45° C. in aerobic medium (55% by volume of air).

| SMILES | Degradation of the retinol (7 days, 0.3 % (weight/volume)) [%] | stabilization of retinol compared with the histidine derivatives |
| --- | --- | --- |
| CC1=C(/C=C/C(C)=C/C=C/C(C)=C/CO)C(C)(C)CCC1 [retinol, all-trans retinol] | 100 | – |
| NCCC(=O)N[C@@H](Cc1cnc[nH]1)C(=O)O [carnosine] | – | stabilizes retinol much less |
